Experimental findings from article PMC10298284, “Synthesis and hLDH Inhibitory Activity of Analogues to Natural Products with 2,8-Dioxabicyclo[3.3.1]nonane Scaffold” (International Journal of Molecular Sciences, 2023) are described below.

One assay deals with T1, recombinant human LDHA (Homo sapiens, UniProt P00338).
T1 construct: purchased Abcam
The assay is described as follows: hLDHA enzymatic activity assay (kinetic spectrofluorimetric, β-NADH fluorescence decrease). The assay is classed as biochemical. Particulars: for IC50: mean ± SD of n = 3 replicates; for Selectivity Rate (IC50 hLDHB/hLDHA): ratio IC50 hLDHB / IC50 hLDHA. As to the method: (§1) Briefly, the decrease in the coenzyme β-NADH fluorescence (λemission = 460 nm) was measured for 10 min, at different concentration of inhibitors, and its slope was compared with the one obtained when there were not inhibitors added (100% enzymatic activity).
The enzymatic assay was conducted on 96-well microplates and the decrease in the β-NADH fluorescence (λexcitation = 340 nm; λemission = 460 nm) was detected in a TECAN Infinite 200 Pro M Plex fluorescent plate reader (Tecan Instrument, Inc.) at 28 °C. The activity was determined according to our previously described protocol. The final volume in each well was set to 200 µL using 100 mM potassium phosphate buffer, 0.041 units/mL LDHA, 155 µM β-NADH, 1 mM pyruvate (saturated conditions), and DMSO solutions (5%, v/v) of pure compounds at concentrations in the range of 1–600 µM. The addition of pyruvate allowed the beginning of the reaction and fluorescence was registered every 60 s during 10 min. A lineal time interval was selected to calculate the slope at every single concentration. […] The slope obtained at each concentration was compared to the one obtained for the 100% enzymatic activity control to determine the corresponding enzymatic activity. A nonlinear regression analysis in GraphPad Prism version 9.00 for Windows (GraphPad Software, La Jolla, CA, USA) was used for dose response curve, fitting of logarithm of inhibitor concentration vs. normalized enzymatic activity, to calculate IC50 values (Supplementary Material section). All measurements were made in triplicate and data were expressed as the mean ± SD.

The target of another assay is T2, recombinant human LDHB (Homo sapiens, UniProt P07195).
T2 construct: purchased Abcam
T2 sequence (P07195 whole entry): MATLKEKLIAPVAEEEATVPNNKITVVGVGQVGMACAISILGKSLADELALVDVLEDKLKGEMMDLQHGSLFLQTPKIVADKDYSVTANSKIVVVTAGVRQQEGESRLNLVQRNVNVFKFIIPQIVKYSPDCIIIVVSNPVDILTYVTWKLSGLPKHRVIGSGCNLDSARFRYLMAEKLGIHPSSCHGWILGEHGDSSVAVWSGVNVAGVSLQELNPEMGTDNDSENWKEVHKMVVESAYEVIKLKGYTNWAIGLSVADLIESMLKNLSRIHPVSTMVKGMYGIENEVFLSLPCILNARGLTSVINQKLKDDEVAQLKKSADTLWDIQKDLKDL
Put plainly: hLDHB enzymatic activity assay (same fluorimetric protocol). The settings on record: mean ± SD of n = 3 replicates. The format is biochemical. As to the method:
as §1
The ability of the synthesized compounds to inhibit the hLDHB enzyme was measured using recombinant human LDHB (95%, specific activity >300 units/mg and concentration of 1.0 mg/mL, Abcam, Cambridge, UK) following the same fluorimetric protocol described in Section 3.4.

The mark [1] stands for this setting: 1 mM pyruvate, 155 µM β-NADH, pH 7.3, 28 °C, read-out: hLDHA IC50.
[2] abbreviates: supplementary dose response curves, µM only on the axis label, read-out: IC50 (hLDHA inhibition curve).

The structures appear in SMILES notation. “And” between values parts separate entries of the source, which are not always exact repeats. Identical values can stand only once. Like-named read-outs stand apart in the source and are kept apart here. A value given as a limit tells only on which side of the number the result lay.

Regarding `COc1ccc(C23CC(c4ccccc4O2)c2c(c4ccccc4oc2=O)O3)cc1OC` (racemic) [(±)-48], the IC50 (in general, the midpoint of a concentration-inhibition curve) is 49.6 ± 1.7 µM on recombinant human LDHA (setting [1]), 49.6 ± 1.7 µM on recombinant human LDHA (setting [2]) and above 300 µM on recombinant human LDHB (read-out: hLDHB IC50). The “Selectivity Rate (IC50 hLDHB/hLDHA)” value at recombinant human LDHA is recorded as above 6.0.

In the case of `O=c1oc2ccccc2c2c1C1CC(c3ccc(O)cc3)(Oc3ccccc31)O2` (racemic) [(±)-51], the half-inhibitory concentration (IC50) at recombinant human LDHA (setting [1]) came to 34.4 ± 0.8 µM; at recombinant human LDHA (setting [2]), 34.4 ± 0.8 µM; on recombinant human LDHB (read-out: hLDHB IC50), 31.5 ± 3 µM. In addition, at recombinant human LDHA, the “Selectivity Rate (IC50 hLDHB/hLDHA)” value is reported as 0.9.

`COc1ccc(C23CC(C4=C(O2)C(=O)c2ccccc2C4=O)c2ccccc2O3)cc1OC` (racemic) [(±)-57]: the results for the IC50 on recombinant human LDHA (setting [1]), at recombinant human LDHA (setting [2]) and on recombinant human LDHB (read-out: hLDHB IC50) were 42.2 ± 2.4 µM, 42.2 ± 2.4 µM and above 300 µM, respectively. In addition, the “Selectivity Rate (IC50 hLDHB/hLDHA)” value on recombinant human LDHA is above 7.1.

`COc1ccc([C@]23C[C@H](C4=C(C[C@@H](c5ccccc5)OC4=O)O2)c2ccccc2O3)cc1OC` (racemic) [(±)-62a, 2-(3′,4′-Dimethoxyphenyl)-chromane-(4→3″, 2→O-4″)-4″-hydroxy-6″-phenyl-5″,6″-dihydro-2H-pyran-2″-one]: the half-inhibitory concentration (IC50) at recombinant human LDHA (setting [1]) is < 10 µM and 3.6 µM; at recombinant human LDHA (setting [2]), 3.6 ± 0.3 µM; on recombinant human LDHB (supplementary dose response curves, µM only on the axis label, read-out: IC50 (hLDHB inhibition curve)), 150 ± 3.9 µM. Moreover, on recombinant human LDHA, the “Selectivity Rate (IC50 hLDHB/hLDHA)” value worked out at 41.8.

For `COc1ccc([C@]23C[C@H](C4=C(C[C@H](c5ccccc5)OC4=O)O2)c2ccccc2O3)cc1OC` (racemic) [(±)-62b, 2-(3′,4′-Dimethoxyphenyl)-chromane-(4→3″, 2→O-4″)-4″-hydroxy-6″-phenyl-5″,6″-dihydro-2H-pyran-2″-one], the 50% inhibitory concentration (IC50) at recombinant human LDHA (setting [1]) was 39.4 ± 1.2 µM; at recombinant human LDHA (setting [2]), 39.4 ± 1.2 µM; on recombinant human LDHB (read-out: hLDHB IC50), above 300 µM. The “Selectivity Rate (IC50 hLDHB/hLDHA)” value at recombinant human LDHA is listed as above 7.6.

Regarding `COc1ccc(C2CC3=C(C(=O)O2)C2CC(c4ccc(OC)c(OC)c4)(O3)Oc3ccccc32)cc1` (racemic) [(±)-64b, 2-(3′,4′-Dimethoxyphenyl)-chromane-(4→3″, 2→O-4″)-4″-hydroxy-6″-(4‴-methoxyphenyl)-5″,6″-dihydro-2H-pyran-2″-one], the IC50 at recombinant human LDHA (setting [1]) was 96.7 ± 9 µM; at recombinant human LDHA (setting [2]) it was 96.7 ± 9 µM; on recombinant human LDHB (read-out: hLDHB IC50), above 300 µM. Also, the “Selectivity Rate (IC50 hLDHB/hLDHA)” value at recombinant human LDHA is above 3.1.

Take `COc1ccc(C23CC(C4=C(CC(c5ccccc5)OC4=O)O2)c2cc([N+](=O)[O-])ccc2O3)cc1OC` (racemic) [(±)-65b, 2-(3′,4′-Dimethoxyphenyl)-6-nitrochromane-(4→3″, 2→O-4″)-4″-hydroxy-6″-phenyl-5″,6″-dihydro-2H-pyran-2″-one]: the IC50 at recombinant human LDHA (setting [1]) is < 10 µM and 8.5 µM; at recombinant human LDHA (setting [2]), 8.5 ± 0.4 µM; on recombinant human LDHB (read-out: hLDHB IC50) it was above 300 µM. Also, at recombinant human LDHA, the “Selectivity Rate (IC50 hLDHB/hLDHA)” value is on record as above 35.3.

`COc1ccc(C23CC(C4=C(CC(c5ccc(Cl)cc5)OC4=O)O2)c2cc([N+](=O)[O-])ccc2O3)cc1OC` (racemic) [(±)-66b, 2-(3′,4′-Dimethoxyphenyl)-6-nitrochromane-(4→3″, 2→O-4″)-6″-(4‴-chlorophenyl)-4″-hydroxy-5″,6″-dihydro-2H-pyran-2″-one]: the IC50 on recombinant human LDHA (setting [1]) was < 10 µM and 6 µM; on recombinant human LDHA (setting [2]), 6 ± 0.1 µM; at recombinant human LDHB (read-out: hLDHB IC50), 20.4 ± 0.7 µM. Besides, the “Selectivity Rate (IC50 hLDHB/hLDHA)” value at recombinant human LDHA is on record as 3.4.

With `COc1ccc(C2CC3=C(C(=O)O2)C2CC(c4ccc(OC)c(OC)c4)(O3)Oc3ccc([N+](=O)[O-])cc32)cc1` (racemic) [(±)-67b, 2-(3′,4′-Dimethoxyphenyl)-6-nitrochromane-(4→3″, 2→O-4″)-4″-hydroxy-6″-(4‴-methoxyphenyl)-5″,6″-dihydro-2H-pyran-2″-one], the IC50 on recombinant human LDHA (setting [1]) came to 14.6 ± 0.3 µM; at recombinant human LDHA (setting [2]), 14.6 ± 0.3 µM; at recombinant human LDHB (read-out: hLDHB IC50), 53.7 ± 0.9 µM. Moreover, the “Selectivity Rate (IC50 hLDHB/hLDHA)” value at recombinant human LDHA is reported as 3.7.

On to `COc1ccc(C23CC(C4=C(CC(c5ccc(Cl)cc5)OC4=O)O2)c2cc(Cl)ccc2O3)cc1OC` (racemic) [(±)-69b, 2-(3′,4′-Dimethoxyphenyl)-6-chlorochromane-(4→3″, 2→O-4″)-6″-(4‴-chlorophenyl)-4″-hydroxy-5″,6″-dihydro-2H-pyran-2″-one], for which the IC50 was found to be 14.2 ± 0.8 µM on recombinant human LDHA (setting [1]), 14.2 ± 0.8 µM on recombinant human LDHA (setting [2]) and 77 ± 9.7 µM at recombinant human LDHB (read-out: hLDHB IC50). For the same compound, the “Selectivity Rate (IC50 hLDHB/hLDHA)” value at recombinant human LDHA is given as 5.4.
